Experimental data from patent US5380729A, “12-hetero substituted 6,11-ethano-6,11-dihydrobenzo (b) quinolizinium salts and compositions and method of use thereof” (Sterling Winthrop Inc., priority 1993, dated 1995).

How the values were obtained:
[1] = system: NMDA-induced neurotoxicity in cultured cortical neurons; experiment: Antagonism of NMDA-induced neurotoxicity in cultured neurons (LDH release); assay type: cell-based, mouse (Swiss-Webster); settings: 500 μM NMDA, 30 minutes, LDH activity at 24 hours, mouse cortical neurons
Protocol: Antagonism of NMDA-induced Neurotoxicityin Cultured Neurons
Preparation of Cultured Cortical Neurons
Pregnant, Swiss-Webster mice were obtained from Taconic Farms (Germantown, New York) and sacrificed 16 days post conception. Fetuses were removed and placed in a sterile dish containing Hank's balanced salt solution (HBSS), pH 7.4. Brain cortices were dissected, meninges were removed, the tissue was minced and placed into a solution of HBSS containing 0.25% (w/v) trypsin at 37° C. for 15 minutes. Tissue was then triturated with a sterile pasteur pipet, diluted with minimal essential media (Gibco 330-1430), pH 7.4, supplemented with 10% horse serum, 10% fetal calf serum, 2 mM 1-glutamine, 21 mM d-glucose, 2.2 g/L sodium bicarbonate, 1000 u/ml penicillin, and 1,000 μg/ml streptomycin. Cells were plated onto Falcon primaria 96 well plates at a final density of 50,000 cells/well and incubated at 37° C. in the presence of 5% (v/v) carbon dioxide. After 5 days, plating media was replaced with maintenance media containing minimal essential media (Gibco 330- 1430), pH 7.4, supplemented with 10% horse serum, 10% 1-glutamine, 21 mM d-glucose, 2.2 g/l sodium bicarbonate,1,000 U/ml penicillin, 1,000 μg/ml streptomycin, and 10 μM cytosine arabinoside. On days 7 and 10, media was replaced with maintenance media as above lacking the cytosine arabinoside. Experiments were conducted on day 13.
Neuroprotection Assessment
Day 13 cultured cortical neurons were washed twice with minimal essential media, pH 7.4 and then exposed for 30 minutes to 500 μM N-methyl-D-aspartic acid (NMDA) with or without varying concentrations of test agents. Dizocilpine (MK-801) at a final concentration of 10 μM MK-801 was routinely included as a positive control. MK-801 and test agents were prepared in minimal essential media supplemented with 21 mM d-glucose and 2.2 g/L sodium bicarbonate (MEM). After 30 minutes, media was replaced with MEM alone. Exposure of neurons to test agents was limited to the NMDA treatment period. Twenty-four hours after removal of NMDA, an aliquot of media from each well was removed for assessment of cell injury by determining lactate dehydrogenase (LDH) activity by. the method of Wroblewski and LaDue Proc. Soc. Exp. Biol. Med. 1955, 90, 210-213. The results are expressed as an IC50 (in nM) value (concentration causing 50% inhibition) for the antagonism of NMDA--inducedneurotoxicity.

[2] = Comparison of separate enantiomers with the racemate (test not specified); settings: (-)-enantiomer vs (+)-enantiomer or racemate
PCP recognition sites [3] = experiment: [3H]TCP Radioreceptor Assay (internal screen); assay type: binding, rat (male Sprague-Dawley; settings: rat whole brain membranes, room temperature, 25 min; for Ki: ~1 nM [3H]TCP
Protocol: [^3 H]TCP Radioreceptor Assay (internal screen)
[^3 H]TCP binding to PCP recognition sites was performed as described by Vignon et al. Brain Research 1983, 280, 194°197. Male Sprague-Dawley rats were sacrificed by decapitation, and whole brains were homogenized in 10 volumes (wt/vol) of cold Tris-HCl buffer (50 mM, pH 7.7) using a Brinkmann Polytron (setting 6, 30 sec). The homogenate was centrifuged at 40,000×g for 10 min at 4° C. The supernatant was decanted, and the homogenization and centrifugation steps were repeated twice as described above. Following this, the pellet was resuspended in Tris-HCl (5 mM, pH 7.7) at a tissue concentration of 0.5°0.75 g/ml, and one ml aliquots were frozen at -70° C. until use. The binding characteristics for PCP recognition sites were not altered by the freezing of membrane suspensions.
On the day of the assay, membrane aliquots were thawed, resuspended in fresh 5 mM Tris-HCl buffer at a tissue concentration of 1 mg/ml, and stored on ice until use. Each assay tube contained 100 μl of [^3 H]TCP at a final concentration of approximately 1 nM, 100 μl of various concentrations of the compounds of interest, 500 μl of the tissue suspension and 300 of buffer to a final assay volume of 1 ml and a final protein concentration of 0.5 mg/tube. Non-specific binding was defined by addition of a final concentration of 100 μM PCP to blank tubes. All tubes were incubated at room temperature for 25 min before termination of the reaction by rapid filtration over Whatman GF/B glass fiber filters that had been presoaked in a solution of 0.5% polyethylenimine for at least 1 hr prior to use. Filters were washed with three 4 ml volumes of cold Tris buffer. Following addition of scintillation cocktail, the amount of bound radioactivity was determined by liquid scintillation spectrometry using a Beckman LS 5000TA liquid scintillation counter with an efficiency for tritium of approximately 55% . Inhibition constants (Ki values) were calculated using the EBDA/LIGAND program (McPherson, J. Pharmacol. Meth. 1985, 14, 213-228), purchased from Elsevier/Biosoft, Inc. Results are reported as Ki values or as a percent (%) inhibition of binding at 10

PCP recognition sites [4] = experiment: [3H]TCP Radioreceptor Assay (external screen); assay type: binding, rat (whole rat forebrain membranes); settings: @ 10 μM; rat forebrain membranes; 25° C., 60 minutes
Protocol: Representative compounds of the invention were also tested in an external [^3 H]TCP radioreceptor assay using the following protocol:
[^3 H]TCP Radioreceptor Assay (external screen)
A procedure similar to that described above for the [^3 H]TCP radioreceptor assay (internal screen) was utilized except that the whole rat forebrain membranes were incubated at 25° C. for 60 minutes rather than at room temperature for 25 minutes, before termination of the reaction. The results are reported as a percent (%) inhibition of binding at 10 μM.

SMILES | IC50 [1] [nM] | Percent inhibition, [3H]TCP (external screen) (PCP recognition sites [4]) [%] | Ki (PCP recognition sites [3]) [nM] | other results
CCOC1(OCC)C2c3ccccc3C([n+]3ccccc32)C1(C)C (single isomer, unassigned; (-)) [Example 12(c), (-)-12,12-diethoxy-13,13-dimethyl-6,11-ethano-6,11-dihydrobenzo[b]quinolizinium chloride. 1/2-7/4 hydrate] | 26 | – | – | potency compared to the (+)-enantiomer (Example 13(c)) or the racemate (Example 2) [2]: more potent; side effects compared to the (+)-enantiomer (Example 13(c)) or the racemate (Example 2) [2]: fewer side effects; Ki (PCP recognition sites [3]; hydrate): 4.03 nM
CCOC1(OCC)CC2c3ccccc3C1(C)c1cccc[n+]12.[O-][Cl+3]([O-])([O-])[O-] (centres unmarked) [63(c), 11-Methyl-12,12-diethoxy-6,11-ethano-6,11-dihydrobenzo[b]quinolizinium perchlorate] | – | 0 | 9300 | –
CCOC1(OCC)C2c3c(C)ccc(C)c3C(C1C)[n+]1ccccc12.[O-][Cl+3]([O-])([O-])[O-] (centres unmarked) [63(e), 7,10-Dimethyl-12,12-diethoxy-13-methyl-6,11-ethano-6,11-dihydrobenzo[b]quinolizinium perchlorate] | – | 65 | 255 | –
CCOC1(OCC)CC2c3c(C)cccc3C1c1cccc[n+]12.[O-][Cl+3]([O-])([O-])[O-] (centres unmarked) [63(f), 7-Methyl-12,12-diethoxy-6,11-ethano-6,11-dihydrobenzo[b]quinolizinium perchlorate] | – | 34 | 7430 | –
CCOC1(OCC)CC2c3ccc(C)cc3C1c1cccc[n+]12.[O-][Cl+3]([O-])([O-])[O-] (centres unmarked) [63(g), 9-Methyl-12,12-diethoxy-6,11-ethano-6,11-dihydrobenzo[b]quinolizinium perchlorate] | – | 0 | – | Percent inhibition, [3H]TCP (internal screen) (PCP recognition sites [3]; @ 10 μM): 68%
CCOC1(OCC)CC2c3c(C)ccc(C)c3C1c1cccc[n+]12.[O-][Cl+3]([O-])([O-])[O-] (centres unmarked) [63(h), 7,10-Dimethyl-12,12-diethoxy-6,11-ethano-6,11-dihydrobenzo[b]quinolizinium perchlorate] | – | 52 | – | –
CCOC1(OCC)CC2c3cc(C)c(C)cc3C1c1cccc[n+]12.[O-][Cl+3]([O-])([O-])[O-] (centres unmarked) [63(i), 8,9-Dimethyl-12,12-diethoxy-6,11-ethano-6,11-dihydrobenzo[b]quinolizinium perchlorate] | – | 35 | 2260 | –
CCOC1(OCC)C2c3ccccc3C([n+]3ccccc32)C1(C)C (centres unmarked) [Example 2, 12,12-diethoxy-13,13-dimethyl-6,11-ethano-6,11-dihydrobenzo[b]quinolizinium chloride-1/4 H2 O] | – | – | 5.3 | IC50 ([1]; Cortical neurone): 30 to 50 nM
CCOC1(OCC)C2c3c(Br)cccc3C([n+]3ccccc32)C1(C)C.[O-][Cl+3]([O-])([O-])[O-] (centres unmarked) [Example 29, 6,11-ethano-12,12-diethoxy-13,13-dimethyl-10-bromo-6,11-dihydrobenzo[b]quinolizinium perchlorate] | 1040 | – | 132 | –
CCOC1(OCC)C2c3cc(Br)ccc3C([n+]3ccccc32)C1(C)C.[O-][Cl+3]([O-])([O-])[O-] (centres unmarked) [Example 35, 6,11-ethano-12,12-diethoxy-13,13-dimethyl-9-bromo-6,11-dihydrobenzo[b]quinolizinium perchlorate] | 173 | – | 61.5 | –
CCOC1(OCC)C2c3ccccc3C(C1C)[n+]1ccccc12.[O-][Cl+3]([O-])([O-])[O-] (centres unmarked) [Example 38, 6,11-ethano-12,12-diethoxy-13-methyl-6,11-dihydrobenzo[b]quinolizinium perchlorate] | 1160 | – | 33.8 | –
CCCOC1(OCCC)C2c3ccccc3C([n+]3ccccc32)C1(C)C.[O-][Cl+3]([O-])([O-])[O-] (centres unmarked) [Example 39, 6,11-ethano-12,12-dipropoxy-13,13-dimethyl-6,11-dihydrobenzo[b]quinolizinium perchlorate] | 85 | – | 11.5 | –
CCOC1(OCC)C2c3cc([N+](=O)[O-])ccc3C([n+]3ccccc32)C1(C)C.[O-][Cl+3]([O-])([O-])[O-] (centres unmarked) [Example 46, 6,11-ethano-12,12-diethoxy-13,13-dimethyl-9-nitro-6,11-dihydrobenzo[b]quinolizinium perchlorate] | 15300 | – | 2760 | –
CCOC1(OCC)C2(C)c3ccccc3C([n+]3ccccc32)C1(C)C.[O-][Cl+3]([O-])([O-])[O-] (centres unmarked) [Example 51, 6,11-ethano-12,12-diethoxy-13,13-dimethyl-11-methyl-6,11-dihydrobenzo[b]quinolizinium perchlorate] | – | – | 11.3 | IC50 ([1]; Cortical neurone): 32.4 nM
